According to patent US12110316B2, “Cleavable activators of CXCR3 and methods of use” (University of Pittsburgh—Of the Commonwealth System of …, priority 2018, dated 2024):

Tested on: choroidal neovascularization (CNV)
Test: Laser-induced choroidal neovascularization (CNV) mouse model
Type: in vivo
Details: female C57BL/6J mice; 1 μg (FIG. 1A) or 3 μg (FIG. 1B) peptide injected in 1 μl in one eye immediately after laser; scramble peptide in contralateral eye; measured seven days after laser
Method: Since the histidine to serine substitution is a non-conserved amino acid change, experiments were performed to confirm that the engineered peptide retained the ability to block angiogenesis and fibrosis in a mouse model of choroidal neovascularization (CNV).
Mouse CNV was induced by laser photocoagulation-induced rupture of Bruch's membrane as previously described. Briefly, 7- to 8-week-old female C57BL/6J mice were anesthetized with ketamine hydrochloride (100 mg/kg body weight), and pupils were dilated with 1% tropicamide. Three burns of 532-nm diode laser photocoagulation (spot size, […]; duration, 0.1 sec; power, 120 mW) were delivered to each retina with the slit lamp delivery system of an OcuLight GL diode laser (Iridex, Mountain View, CA), using a coverslip as a contact lens to view the retina. Burns were performed at the 9, 12, and 3 o'clock positions of the posterior pole of the retina. […]
Immediately after laser treatment, mice were injected with either 1 μg (FIG. 1A) or 3 μg (FIG. 1B) of Peptide 110 (SEQ ID NO: 2), or one of three positive control peptides (Peptide 102, Peptide 105 or Peptide 107), in a volume of 1 μl in one eye and the contralateral eyes were injected with scramble peptide as control. […] After three washes with PBST, choroids were mounted on glass slides and were examined by fluorescence microscopy. […]

Sequence: PESKAIKNLLKAVHKEMSKRSP [Peptide 110, modified fragment of human CXCL10 with a cathepsin G and neutrophil elastase cleavage site]
- choroidal neovascularization (total area of choroidal NV at each rupture site); anti-angiogenic activity: significant reduction
